What was measured:
[1] = system: Plutella xylostella (Diamond back moth); experiment: Plutella xylostella larvae test on artificial diet; format: in vivo; details: 144 h, 200 ppm (concentration in well 18 ppm), artificial diet, L2 larvae, larval mortality and growth regulation after 6 days
Experimental: (§1) This Example illustrates the insecticidal and acaricidal properties of compounds of formula (I). The tests were performed as follows:
(§2) Cotton leaf discs were placed on agar in a 24-well microtiter plate and sprayed with test solutions at an application rate of 200 ppm. After drying, the leaf discs were infested with 5 L1 larvae. The samples were checked for mortality, feeding behavior, and growth regulation 3 days after treatment (DAT). The following compound gave at least 80% control of Spodoptera littoralis: A1, A2, A5, A6, A7, A8, A10, A11, A12, A13, A14, A15, A16, A17, A18, A19, A21, A22, A23, A24, A25, A30, A31, A32, A33, A34, A35, A39, A40, A41 A42, A43, A44, A45, A46, A47, A48, A49, A50, A51, A53, A54, A55, A59, A60, A61, A62. Heliothis virescens (Tobacco budworm): Eggs (0-24 h old) were placed in 24-well microtiter plate on artificial diet and treated with test solutions at an application rate of 200 ppm (concentration in well 18 ppm) by pipetting. After an incubation period of 4 days, samples were checked for egg mortality, larval mortality, and growth regulation. The following compound gave at least 80% control of Heliothis virescens: A1, A2, A3, A4, A5, A6, A7, A8, A10, A11, A12, A13, A14, A15, A16, A18, A19, A21, A22, A24, A25, A30, A31, A32, A33, A34, A35, A37, A38, A39, A40, A42, A43, A44, A45, A46, A47, A48, A49, A50, A51, A55, AA57, A58, A59, A60, A61, A62. Plutella xylostella (Diamond back moth): 24-well microtiter plate (MTP) with artificial diet was treated with test solutions at an application rate of 200 ppm (concentration in well 18 ppm) by pipetting. After drying, the MTP's were infested with L2 larvae (7-12 per well). After an incubation period of 6 days, samples were checked for larval mortality and growth regulation. The following compound gave at least 80% control of Plutella xylostella: A1, A2, A5, A6, A7, A8, A9, A10, A11, A12, A13, A14, A15, A16, A17, A18, A19, A20, A21, A22, A24, A25, A30, A31, A32, A33, A34, A35, A37, A38, A39, A40, A42, A43, A44, A45, A46, A47, A48, A49, A50, A51, A52, A53, A54, A55, A57, A58, A59, A60, A61, A62, B3. Diabrotica balteata (Corn root worm): A 24-well microtiter plate (MTP) with artificial diet was treated with test solutions at an application rate of 200 ppm (concentration in well 18 ppm) by pipetting. After drying, the MTP's were infested with L2 larvae (6-10 per well). After an incubation period of 5 days, samples were checked for larval mortality and growth regulation. The following compound gave at least 80% control of Diabrotica balteata: A1, A2, A5, A6, A7, A10, A11, A12, A13, A14, A15, A16, A17, A18, A19, A21, A22, A24, A25, A30, A31, A32, A33, A34, A35, A38, A39, A40, A42, A43, A44, A45, A46, A47, A48, A49, A50, A59, A60, A61, A62. Thrips tabaci (Onion thrips): Sunflower leaf discs were placed on agar in a 24-well microtiter plate and sprayed with test solutions at an application rate of 200 ppm. After drying, the leaf discs were infested with an […] population of mixed ages. After an incubation period of 7 days, samples were checked for mortality. The following compounds gave at least 80% control of Thrips tabaci: A1, A2, A5, A6, A7, A8, A10, A12, A13, A14, A15, A16, A17, A18, A19, A21, A24, A25, A30, A31, A32, A33, A34, A35, A39, A42, A43, A44, A45, A46, A47, A48, A49, A50, A51, A53, A54, A57, A58, A59, A60, A61, A62. Tetranychus urticae (Two-spotted spider mite): Bean leaf discs on agar in 24-well microtiter plates were sprayed with test solutions at an application rate of 200 ppm. After drying, the leaf discs are infested with mite populations of mixed ages. 8 days later, discs are checked for egg mortality, larval mortality, and adult mortality. The following compound gave at least 80% control of Tetranychus urticae: A1, A2, A4, A5, A6, A7, A8, A10, A11, A12, A13, A14, A15, A16, A17, A18, A19, A20, A21, A22, A30, A31, A32, A33, A34, A35, A39, A40, A41, A42, A43, A44, A45, A46, A47, A48, A49, A50, A51, A53, A54, A55, A57, A59, A60, A61, A62.

[2] = system: Tetranychus urticae (Two-spotted spider mite); experiment: Tetranychus urticae bean leaf disc spray test; format: in vivo; details: foliar, 192 h, 200 ppm spray on bean leaf discs, mite populations of mixed ages, egg, larval and adult mortality 8 days later, read-out: control of Tetranychus urticae
Experimental: as §1, §2

| Structure (SMILES) | pest or weed control at 200 ppm [1] [%] | pest or weed control at 200 ppm [2] [%] |
| --- | --- | --- |
| CC1(NC(=O)c2ccc(C3=NOC(c4cc(Cl)cc(Cl)c4)(C(F)(F)F)C3)c3ccccc23)CSC1 (stereo not shown) [A1] | ≥ 80 | ≥ 80 |
| O=C(NC1CSC1)c1ccc(C2=NOC(c3cc(Cl)cc(Cl)c3)(C(F)(F)F)C2)c2ccccc12 (stereo not shown) [A2] | ≥ 80 | ≥ 80 |
| Cc1cc(C2=NOC(c3cc(Cl)cc(Cl)c3)(C(F)(F)F)C2Br)ccc1C(=O)NC1(C)CSC1 (stereo not shown) [A5] | ≥ 80 | ≥ 80 |
| Cc1cc(C2=NOC(c3cc(Cl)cc(Cl)c3)(C(F)(F)F)C2Br)ccc1C(=O)NC1CSC1 (stereo not shown) [A6] | ≥ 80 | ≥ 80 |
| Cc1cc(C2=NOC(c3cc(Cl)cc(Cl)c3)(C(F)(F)F)C2Br)ccc1C(=O)NC1C[S+]([O-])C1 (stereo not shown) [A7] | ≥ 80 | ≥ 80 |
| Cc1cc(N2CC(c3cc(Cl)cc(Cl)c3)(C(F)(F)F)OC2=O)ccc1C(=O)NC1C[S+]([O-])C1 (stereo not shown) [A10] | ≥ 80 | ≥ 80 |
| Cc1cc(N2CC(c3cc(Cl)cc(Cl)c3)(C(F)(F)F)OC2=O)ccc1C(=O)NC1CSC1 (stereo not shown) [A11] | ≥ 80 | ≥ 80 |
| Cc1cc(C2=NN(C)C(c3cc(Cl)cc(Cl)c3)(C(F)(F)F)C2)ccc1C(=O)NC1(C)CSC1 (stereo not shown) [A12] | ≥ 80 | ≥ 80 |
| Cc1cc(C2=NN(C)C(c3cc(Cl)cc(Cl)c3)(C(F)(F)F)C2)ccc1C(=O)NC1C[S+]([O-])C1 (stereo not shown) [A13] | ≥ 80 | ≥ 80 |
| Cc1cc(C2=NN(C)C(c3cc(Cl)cc(Cl)c3)(C(F)(F)F)C2)ccc1C(=O)NC1CSC1 (stereo not shown) [A14] | ≥ 80 | ≥ 80 |
| O=C(NC1CS(=O)(=O)C1)c1ccc(C2=NOC(c3cc(Cl)cc(Cl)c3)(C(F)(F)F)C2)c2ccccc12 (stereo not shown) [A15] | ≥ 80 | ≥ 80 |
| O=C(NC1C[S+]([O-])C1)c1ccc(C2=NOC(c3cc(Cl)cc(Cl)c3)(C(F)(F)F)C2)c2ccccc12 (stereo not shown) [A16] | ≥ 80 | ≥ 80 |
| Cc1cc(C2=NOC(c3cc(Cl)cc(Cl)c3)(C(F)(F)F)O2)ccc1C(=O)NC1CSC1 (stereo not shown) [A17] | ≥ 80 | ≥ 80 |
| Cc1cc(C2CC(c3cc(Cl)cc(Cl)c3)(C(F)(F)F)ON2C)ccc1C(=O)NC1C[S+]([O-])C1 (stereo not shown) [A18] | ≥ 80 | ≥ 80 |
| Cc1cc(C2CC(c3cc(Cl)cc(Cl)c3)(C(F)(F)F)ON2C)ccc1C(=O)NC1CS(=O)(=O)C1 (stereo not shown) [A19] | ≥ 80 | ≥ 80 |
| Cc1cc(C2CC(c3cc(Cl)cc(Cl)c3)(C(F)(F)F)ON2C)ccc1C(=O)NC1CSC1 (stereo not shown) [A21] | ≥ 80 | ≥ 80 |
| O=C(NC1CS(=O)(=O)C1)c1ccc(C2=NOC(c3cc(Cl)cc(Cl)c3)(C(F)(F)F)C2)c2nsnc12 (stereo not shown) [A22] | ≥ 80 | ≥ 80 |

— US9216973B2, “Insecticidal compounds” (Syngenta Participations AG, priority 2008, dated 2015)
